Results reported in patent US20160193216A1 (Nimbus Iris, Inc., priority 2012, published 2016).
Read-outs that look alike come from different tables or passages of the source.

Key:
[1] = test system: THP-1 cells; test: LPS induced cytokine (TNFα and IL8) production assay in THP-1 cells; format: cell-based; conditions: Homo sapiens, 300 ng/mL LPS
Experimental: Cytokine Production Assay
Provided compounds were also assayed in an LPS (Lipopolysacharide) or R848 (TLR-7 agonist) induced cytokine (TNFα and IL8) production assay in THP-1 cells, human peripheral blood mononuclear cells (hPBMC), and whole blood. The exemplary protocol for this assay in THP-1 cells was as follows below.
THP-1 cells from ATCC (TIB-202) were cultured in RPMI Medium 1640 (Invitrogen, Cat No. A10491-01), 10% fetal bovine serum (Invitrogen, Cat No. 10099141, Lot No. 8172882) containing 100 U/mL Penicillin, 100 μg/mL streptomycin (Invitrogen, Cat No. 15140-122), and 50 uM 2-Mercaptoethanol (Invitrogen, Cat No. 21985023). LPS-EK ultra pure (Invivogen, Cat No. tlrl-peklps) was used to induce IL8 and TNFα production, that was detected in the cell culture supernatant by IL8 HTRF kit (Cisbio, Cat No. 62IL8PEB) and TNFα HTRF kit (Cisbio, Cat No. 62TNFPEB), as per manufacturer instructions. Cells were cultured in 96 well assay plates at 100,000 cells per well, and compounds diluted in final 0.3% DMSO were pre-incubated with cells for 1 hour prior to stimulation with 300 ng/mL LPS. Cytokine production in cell supernatant was measured at 5 hours for TNFα and IL8 production, and for 16 hours for IL8 production and assessment of cell viability.
The compound numbers correspond to the compound numbers in Table 1. […] “NA” stands for “not assayed.”

[2] = test system: Whole Blood; test: In vitro LPS/R848-induced cytokine production assay in whole blood; format: cell-based, human; conditions: Homo sapiens
Experimental: In Vitro LPS/R848/CpG-Induced Cytokine Production Assays in hPBMC or Whole Blood
Compounds of the present invention were also studied in in vitro LPS/R848/CpG-induced cytokine production assays. Exemplary protocols follow.
[…] Cells were seeded in a 96-well plate with 130 ul/well of the cell suspension according to the plate map. 9 ul of 30 mM compound solution was added into the wells in the assigned rows, then serial solutions with 4× dilutions were made. That is, add 9 uL of 100% DMSO into each of the rest wells and take 3 uL of compound solution from the one-step higher concentration solution and mix well with the DMSO. For the second compound master plate, 196 uL of the growth medium (no serum media) were added into each of the wells and 4 uL of the compound solution from the first compound master plate was added and mixed with the media. Cells were treated for 0.5 h by adding 20 uL of the compound and the control solutions prepared in the second master plate to each well according to the plate map. […] Plates were sealed with sealing films and the plates were centrifuged at 3000 rpm at 4 degrees C. for 5 min. The supernatants were transferred, and 100 ul of working Capture antibody solution was added to each well. The plates were sealed and incubated overnight at RT. IL-6, IFN-α or TNF-α detection antibody labeled with biotin: Added 100 uL of the Detection Antibody solution to each well. Covered the plate and incubated for 2 h at RT. Added 100 uL of Streptavidin-HRP solution to each well. Covered the plate and incubate for 20 min at RT in dark. Added 100 uL of Substrate Solution to each well. Incubated for 20 min at RT in dark. Added 50 uL of Stop Solution to each well. Gently tapped the plate to ensure thorough mixing. Determined the optical density of each well immediately, using a microplate reader set to 450 nm and also read at 540 nm or 570 nm for correction if wavelength correction is not available.

[3] = target: T1, IRAK4 (Homo sapiens, UniProt Q9NWZ3); test: IRAK-4 activity inhibition assay (Caliper); format: biochemical; conditions: 37 μM ATP, 3.5 nM IRAK4
T1 sequence (Q9NWZ3 1-460): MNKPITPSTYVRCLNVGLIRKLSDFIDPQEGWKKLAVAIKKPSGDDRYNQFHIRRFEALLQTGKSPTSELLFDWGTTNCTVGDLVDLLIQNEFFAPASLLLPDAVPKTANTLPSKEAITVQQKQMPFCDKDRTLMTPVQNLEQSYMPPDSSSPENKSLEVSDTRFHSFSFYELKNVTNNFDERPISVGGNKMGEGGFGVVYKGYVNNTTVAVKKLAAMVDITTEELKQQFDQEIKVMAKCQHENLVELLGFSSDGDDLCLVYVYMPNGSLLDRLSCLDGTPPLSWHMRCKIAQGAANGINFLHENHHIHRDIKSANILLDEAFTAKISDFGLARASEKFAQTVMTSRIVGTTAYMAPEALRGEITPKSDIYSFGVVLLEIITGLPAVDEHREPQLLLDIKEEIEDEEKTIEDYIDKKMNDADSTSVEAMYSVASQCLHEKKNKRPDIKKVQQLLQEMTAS

[4] = LPS 0.1 ug/mL, read-out: TNF-α production IC50
[5] = R848 1 uM, read-out: IFN-α production IC50

Structure (SMILES)	IC50 ([1]; read-out: IL8 production IC50)	IC50 ([1]; read-out: TNFα production IC50)	IC50 [2, 4]	IC50 [2, 5]	IC50 [3]
CN(CC(=O)N1CCCC1)[C@H]1CC[C@H](Oc2ncnc3sc4c(c23)[C@@H](CC(N)=O)CC4)CC1 [Compound I-73, 2-[(3R)-12-[(4-[methyl[2-oxo-2-(pyrrolidin-1-yl)ethyl]amino]cyclohexyl)oxy]-7-thia-9,11-diazatricyclo[6.4.0.0[2,6]]dodeca-1(8),2(6),9,11-tetraen-3-yl]acetamide]	1000 to 5000 nM	1000 to 5000 nM	≥ 1000 nM	–	< 5000 nM
CCN[C@H]1CC[C@H](Oc2ncnc3sc4c(c23)[C@@H](CC(N)=O)CC4)CC1 [Compound I-85, 2-((R)-4-(((1r,4R)-4-(ethylamino)cyclohexyl)oxy)-6,7-dihydro-5H-cyclopenta[4,5]thieno[2,3-d]pyrimidin-5-yl)acetamide]	500 to 1000 nM	500 to 1000 nM	≥ 1000 nM	–	< 5000 nM
NC(=O)C[C@H]1CCc2sc3ncnc(O[C@H]4CC[C@H](N5CCCC5)CC4)c3c21 [Compound I-105, 2-[(3R)-12-[[4-(pyrrolidin-1-yl)cyclohexyl]oxy]-7-thia-9, 11-diazatricyclo[6.4.0.0[2,6]]dodeca-1(8),2(6),9, 11-tetraen-3-yl]acetamide]	≤ 500 nM	500 to 1000 nM	≥ 1000 nM	–	< 5000 nM
CN(C)[C@H]1CC[C@H](Oc2ncnc3sc4c(c23)[C@@H](CC(F)(F)C(N)=O)CC4)CC1 [Compound I-144, 3-[(3R)-12-[[4-(dimethylamino)cyclohexyl]oxy]-7-thia-9,11-diazatricyclo[6.4.0.0[2,6]]dodeca-1(8),2(6),9,11-tetraen-3-yl]-2,2-difluoropropanamide]	≤ 500 nM	≤ 500 nM	–	–	< 5000 nM
CN(CC(=O)N1CCCC1)[C@H]1CC[C@H](Oc2ncnc3sc4c(c23)[C@@H](C[C@H](O)C(N)=O)CC4)CC1 [Compound I-149, (2S)-2-hydroxy-3-[(3R)-12-[(4-[methyl[2-oxo-2-(pyrrolidin-1-yl)ethyl]amino]cyclohexyl)oxy]-7-thia-9,11-diazatricyclo[6.4.0.0̂[2,6]]dodeca-1(8),2(6),9,11-tetraen-3-yl]propanamide]	1000 to 5000 nM	1000 to 5000 nM	–	–	< 5000 nM
CN(C)[C@H]1CC[C@H](Oc2ncnc3sc4c(c23)CN(S(C)(=O)=O)CC4)CC1 [Compound I-168, 4-([12-methanesulfonyl-8-thia-4,6,12-triazatricyclo[7.4.0.0-[2,7]]trideca-1(9),2(7),3,5-tetraen-3-yl]oxy)-N,N-dimethylcyclohexan-1-amine]	≥ 5000 nM	≥ 5000 nM	–	–	< 5000 nM
[2H]C1([2H])c2sc3ncnc(O[C@H]4CC[C@H](N5CCOCC5)CC4)c3c2[C@@H](CC(N)=O)C1([2H])[2H] [Compound I-188, 2-[(3R)-12-[[4-(morpholin-4-yl)cyclohexyl]oxy](4,4,5,5-d4)-7-thia-9, 11-diazatricyclo[6.4.0.0[2,6]]dodeca-1(8),2(6),9, 11-tetraen-3-yl]acetamide-d4]	≤ 500 nM	500 to 1000 nM	–	–	< 5000 nM
CN(C)[C@H]1CC[C@H](Nc2ncnc3sc4c(c23)CC(C)(C)OC4)CC1 [Compound I-194, 4-N-[12, 12-dimethyl-11-oxa-8-thia-4,6-diazatricyclo[7.4.0.0[2,7]]trideca-1(9),2(7),3,5-tetraen-3-yl]-1-N, 1-N-dimethylcyclohexane-1,4-diamine]	1000 to 5000 nM	≥ 5000 nM	–	–	< 5000 nM
NC(=O)[C@H]1CCc2sc3ncnc(N[C@H]4CC[C@H](N5CCOCC5)CC4)c3c2C1 [Compound I-207, (12S)-3-[[4-(morpholin-4-yl)cyclohexyl]amino]-8-thia-4,6-diazatricyclo[7.4.0.0[2,7]]trideca-1(9),2(7),3,5-tetraene-12-carboxamide]	1000 to 5000 nM	1000 to 5000 nM	–	–	< 5000 nM
NC(=O)C[C@H]1CCc2sc3ncnc(O[C@H]4CC[C@H](N5CCCCC5)CC4)c3c21 [Compound I-214, 2-[(3R)-12-[[4-(piperidin-1-yl)cyclohexyl]oxy]-7-thia-9,11-diazatricyclo[6.4.0.0[2,6]]dodeca-1(8),2(6),9,11-tetraen-3-yl]acetamide]	≤ 500 nM	≤ 500 nM	–	–	< 5000 nM

Next, values leading:

IC50 ([1]; read-out: IL8 production IC50)	IC50 ([1]; read-out: TNFα production IC50)	IC50 [2, 4]	IC50 [2, 5]	IC50 [3]	Structure (SMILES)
≤ 500 nM	≤ 500 nM	≥ 1000 nM	≥ 1000 nM	–	Cn1cc(Nc2nc(O[C@H]3CC[C@H](N(C)C)CC3)c3c4c(sc3n2)CCC4CC(N)=O)cn1 (stereo in doubt) [Compound I-224, 2-[(3S)-12-[[4-(dimethylamino)cyclohexyl]oxy]-10-[(1-methyl-1H-pyrazol-4-yl)amino]-7-thia-9,11-diazatricyclo[6.4.0.0[2,6]]dodeca-1(8),2(6),9,11-tetraen-3-yl]acetamide]
1000 to 5000 nM	500 to 1000 nM	–	–	< 5000 nM	OC[C@@H]1CCc2sc3ncnc(O[C@H]4CC[C@H](N5CCOCC5)CC4)c3c2C1 [Compound I-215, [(12R)-3-[[4-(morpholin-4-yl)cyclohexyl]oxy]-8-thia-4,6-diazatricyclo[7.4.0.0[2,7]]trideca-1(9),2(7),3,5-tetraen-12-yl]methanol]
≤ 500 nM	≤ 500 nM	–	–	< 5000 nM	NC(=O)[C@@H](O)C[C@H]1CCc2sc3ncnc(O[C@H]4CC[C@H](N5CCCCC5)CC4)c3c21 [Compound I-217, (S)-2-hydroxy-3-((R)-4-(((1r,4R)-4-(piperidin-1-yl)cyclohexyl)oxy)-6,7-dihydro-5H-cyclopenta[4,5]thieno[2,3-d]pyrimidin-5-yl)propanamide]
≤ 500 nM	≤ 500 nM	–	–	< 5000 nM	NC(=O)[C@H](O)C[C@H]1CCc2sc3ncnc(O[C@H]4CC[C@H](N5CCCC5)CC4)c3c21 [Compound I-228, (R)-2-hydroxy-3-((R)-4-(((1r,4R)-4-(pyrrolidin-1-yl)cyclohexyl)oxy)-6,7-dihydro-5H-cyclopenta[4,5]thieno[2,3-d]pyrimidin-5-yl)propanamide]
500 to 1000 nM	≤ 500 nM	–	–	< 5000 nM	NC(=O)C[C@H]1CCc2sc3ncnc(O[C@H]4CC[C@H](N5CCC(F)(F)CC5)CC4)c3c21 [Compound I-229, 2-[(3R)-12-[[4-(4,4-difluoropiperidin-1-yl)cyclohexyl]oxy]-7-thia-9,11-diazatricyclo[6.4.0.0[2,6]]dodeca-1(8),2(6),9, 11-tetraen-3-yl]acetamide]
≥ 5000 nM	≥ 5000 nM	–	–	< 5000 nM	CN(C)[C@H]1CC[C@H](Nc2ncnc3sc4c(c23)C[C@@H](C(N)=O)CC4)CC1 [Compound I-230, (12S)-3-[[4-(dimethylamino)cyclohexyl]amino]-8-thia-4,6-diazatricyclo[7.4.0.0[2,7]]trideca-1(9),2(7),3,5-tetraene-12-carboxamide]
≤ 500 nM	≤ 500 nM	≥ 1000 nM	≥ 1000 nM	–	Cn1cc(Nc2nc(O[C@H]3CC[C@H](N4CCOCC4)CC3)c3c4c(sc3n2)CC[C@@H]4CC(N)=O)cn1 [Compound I-235]
